Test results taken from patent publication US20250134861A1, “COMPOSITIONS COMPRISING 5-METHOXY-N,N-DIMETHYLTRYPTAMINE (5-MEO-DMT) FOR USE IN TREATING MENTAL DISORDERS” (GH RESEARCH IRELAND LIMITED, priority 2019, published 2025).

Tests used:
Assay type in all cases: in vivo, human
[1] = test system: patients with treatment-resistant major depressive disorder; assay: Clinical trial of inhaled 5-MeO-DMT in TRD patients: intensity of the psychedelic effects (MEQ30, ASC, PPEQ); settings: single 12 mg inhaled dose
Method: The following questionnaire is applied in situations where the acute psychedelic experience after treatment with 5-MeO-DMT needs to be quantified. At the end of relevant treatment sessions, the patient is handed a paper form and asked to rate the degree to which at any time during that session they experienced any of the phenomena listed below using the scale listed below. The MEQ30 is then computed and the occurrence of a peak psychedelic experience is then evaluated as described under scoring instructions.
The score for each individual subscale is computed by calculating the average score (from the scale of 0 to 5) for the phenomena belonging to the subscale as listed below.
The MEQ30-total score is computed by taking the average response to all phenomena. Patients or probands with a score≥60% of the maximum possible score on each of the four subscales of the MEQ30 are considered to have experienced a “peak psychedelic experience”.
The Peak Psychedelic Experience Questionnaire (PPEQ) has been developed by the inventor as an improved alternative to the oceanic boundlessness dimension of the ASC and the MEQ30 to allow a simpler and quicker assessment of the intensity of a psychedelic experience.

healthy volunteers = assay: Clinical trial of inhaled 5-MeO-DMT in healthy volunteers: safety and tolerability
Method: (§1) The trial consisted of two parts: Part A, where single doses of 5-MeO-DMT dosage amounts of 2 mg, 6 mg, 12 mg and 18 mg were administered; and Part B, where an initial 5-MeO-DMT dosage amount of 6 mg was administered, and then, unless the participant had already experienced a peak psychedelic experience based on the PPEQ or the supervising physician had decided that further dose increases were inappropriate based on observed side effects, further subsequent dosage amounts of 12 mg and 18 mg were administered with about 3 hours in between each administration. […] Pharmacokinetic analysis of 5-MeO-DMT and bufotenine plasma levels was performed at 1 hour and 3 hours after drug administration in Part A, and at 3 hours after drug administration in Part B.
18 participants were recruited into Part A of the study and 4 participants were recruited into Part B. 9 Participants were female and 13 participants were male. Median age was 29 years (range: 19 to 42 years). In Part A, 4 participants received 2 mg, 6 participants received 6 mg, 4 participants received 12 mg and 4 participants received 18 mg of 5-MeO-DMT. In Part B, 1 participant received 6 mg, 2 participants received 6 mg and then 12 mg and one participant received 6 mg, 12 mg and then 18 mg of 5-MeO-DMT.

[2] = Clinical trial of inhaled 5-MeO-DMT in healthy volunteers: 5-MeO-DMT and bufotenine plasma levels
Method: as §1

[3] = Part A, 2 mg single inhaled dose (n = 4), Administration day, possibly or probably related, mild
[4] = Part A, 6 mg single inhaled dose (n = 6), Administration day, possibly or probably related, mild
[5] = Part A, 6 mg single inhaled dose (n = 6), Day 1, possibly or probably related, mild
[6] = Part A, 18 mg single inhaled dose (n = 4), Administration day, possibly or probably related, mild
[7] = Part A, 18 mg single inhaled dose (n = 4), Day 1, possibly or probably related, mild
[8] = Part B, 12 mg (n = 3), after 6 mg, Administration day, possibly or probably related, mild

COc1ccc2[nH]cc(CCN(C)C)c2c1 [5-MeO-DMT, 5-methoxy-N,N-dimethyltryptamine]
PPE achieved (ASC: at least 60% of the maximum possible score of the Oceanic Boundlessness dimension) ([1]; Patient 1): Yes
PPE achieved (MEQ30: at least 60% of the maximum possible score in each of the four subscales) ([1]; Patient 1): Yes
PPE achieved (PPEQ Total Score of at least 75) ([1]; Patient 1): Yes
PPE achieved (ASC: at least 60% of the maximum possible score of the Oceanic Boundlessness dimension) ([1]; Patient 2): No
PPE achieved (MEQ30: at least 60% of the maximum possible score in each of the four subscales) ([1]; Patient 2): Yes
PPE achieved (PPEQ Total Score of at least 75) ([1]; Patient 2): Yes
Onset of the first psychedelic symptoms after the inhalation ([1]; both patients): within a few seconds
Evaluation of ECG, safety laboratory analyses, CADSS and cognitive tests (PVT, DSST, PMT) (healthy volunteers; Part A and Part B): unremarkable
Severity and course of reported adverse events (healthy volunteers; Part A and Part B): all mild (except for one moderate event) and all resolved spontaneously
Inhalation-related adverse events (healthy volunteers; Part A and Part B, 2 to 18 mg inhaled): No inhalation-related adverse events
Adverse events reported: Nausea (healthy volunteers; [3]): 2
Adverse events reported: Tachycardia (healthy volunteers; [3]): 1
Adverse events reported: Vision blurred (healthy volunteers; [3]): 1
Adverse events reported: Anxiety (healthy volunteers; [4]): 1
Adverse events reported: Headache (healthy volunteers; [4]): 1
Adverse events reported: Nausea (healthy volunteers; [4]): 1
Adverse events reported: Clumsiness (healthy volunteers; [5]): 1
Adverse events reported: Feeling hot (healthy volunteers; [5]): 1
Adverse events reported: Headache (healthy volunteers; [5]): 1
Adverse events reported: Anxiety (healthy volunteers; Part A, 12 mg single inhaled dose (n = 4), Administration day, possibly or probably related, mild): 1
Adverse events reported: Heart rate increased (healthy volunteers; Part A, 12 mg single inhaled dose (n = 4), Administration day, possibly or probably related, this event was moderate): 1^1
Adverse events reported: Headache (healthy volunteers; [6]): 1
Adverse events reported: Nausea (healthy volunteers; [6]): 1
Adverse events reported: Abnormal dreams (healthy volunteers; [7]): 1
Adverse events reported: Fatigue (healthy volunteers; [7]): 1
Adverse events reported: Hallucination (healthy volunteers; [7]): 1
Adverse events reported: Hyperacusis (healthy volunteers; [7]): 1
Adverse events reported: Insomnia (healthy volunteers; [7]): 1
Adverse events reported: Mental fatigue (healthy volunteers; [7]): 1
Adverse events reported: Flashback (healthy volunteers; Part A, 18 mg single inhaled dose (n = 4), Day 7, possibly or probably related, mild): 1
Adverse events reported: Nausea (healthy volunteers; Part B, 6 mg inhaled (n = 4), Administration day, possibly or probably related, mild): 1
Adverse events reported: Fatigue (healthy volunteers; [8]): 1
Adverse events reported: Head discomfort (healthy volunteers; [8]): 1
Adverse events reported: Headache (healthy volunteers; [8]): 1
Adverse events reported: Nausea (healthy volunteers; [8]): 1
Adverse events reported (healthy volunteers; Part B, 18 mg (n = 1), after 12 mg and 6 mg, Administration day, Day 1 and Day 7): None reported
Changes in vital parameters (healthy volunteers; shortly after administration, no other noteworthy changes): temporary, not clinically relevant increase in heart rate and blood pressure
5-MeO-DMT plasma levels ([2]; Part A and Part B, 3-hour time point, LLOQ of the 5-MeO-DMT assay 0.014 ng/ml): reached the lower level of quantification (LLOQ)
5-MeO-DMT plasma levels ([2]; any dose in Part A, 1-hour timepoint): very low
